Assay results published in patent publication US20150133543A1, “TOPICAL GEL COMPOSITION COMPRISING AN INGENOL DERIVATIVE AND A SOLVENT MIXTURE” (LEO Laboratories Limited, priority 2012, published 2015).
≈ marks a conversion by molar mass, not a printed value. Where two headings read alike, the source gives them in different places.

Columns and labels:
[1] = Solubility of ingenol-3-angelate in co-solvents; format: physicochemical; details: organic solvent or mixture
Source text: In order to effect a highly efficient dissolution of the ingenol derivative it may be favourably to add a co-solvent to the composition. The co-solvent may be selected from the group consisting of lower alcohols, such as n-propanol, isopropanol, n-butanol, 2-butanol or benzyl alcohol, diols such as propylene glycol, a pyrrolidone such as N-methylpyrrolidone or N-hydroxyalkylpyrrolidone, an azone, ethyl acetate, dodecyl amine, diethylene glycol monoethyl ether, a fatty acid such as oleic or lauric acid, propylene carbonate, menthol or limolene. In particular, ingenol-3-angelate is soluble to freely soluble in the co-solvents benzyl alcohol (201-223 mg/ml), N-methylpyrrolidone (104-260 mg/ml), ethyl acetate (102-255 mg/ml), isopropanol (225-248 mg/ml) and diethylene glycol monoethyl ether (57-114 mg/ml). Some of these co-solvents, such as lower alcohols, may also, as required, act as penetration enhancers aiding the penetration of the ingenol derivative into the viable layers of the skin.

[2] = oral administration to rats, versus a formulation in lipid alone; cited from earlier work

Work on `C/C=C(/C)C(=O)O[C@H]1C(C)=C[C@]23C(=O)[C@@H](C=C(CO)[C@@H](O)[C@]12O)[C@H]1[C@@H](C[C@H]3C)C1(C)C` [ingenol-3-angelate, 2-methyl-2(Z)-butenoic acid (1aR,2S,5R,5aS,6S,8aS,9R,10aR)-5,5a-dihydroxy-4-(hydroxymethyl)-1,1,7,9-tetramethyl-11-oxo-1a,2,5,5a,6,9,10,10a-octahydro-1H-2,8a-methanocyclopenta[a]cyclopropa[e]cyclodecen-6-yl ester] yielded a solubility ([1]; co-solvent N-methylpyrrolidone, read-out: solubility in N-methylpyrrolidone) of 104 to 260 mg/mL (≈ 242 to 604 mM), a solubility ([1]; co-solvent benzyl alcohol, read-out: solubility in benzyl alcohol) of 201 to 223 mg/mL (≈ 467 to 518 mM) and a solubility ([1]; co-solvent diethylene glycol monoethyl ether, read-out: solubility in diethylene glycol monoethyl ether) of 57 to 114 mg/mL (≈ 132 to 265 mM). The solubility ([1]; co-solvent ethyl acetate, read-out: solubility in ethyl acetate) was 102 to 255 mg/mL (≈ 237 to 592 mM) and the solubility ([1]; co-solvent isopropanol, read-out: solubility in isopropanol) was 225 to 248 mg/mL (≈ 523 to 576 mM).
For `C=C1/C(=C\C=C2/CCC[C@]3(C)[C@@H]([C@H](C)/C=C/C=C/C(O)(CC)CC)CC[C@@H]23)C[C@@H](O)C[C@@H]1O` [seocalcitol], the bioavailability of seocalcitol [2] is given as “not improved”.
